The text below walks through data of patent US7812022B2 (GlaxoSmithKline LLC, priority 2004, dated 2010).

One experiment has as its target T1, ErbB2 or EGFR.
T1 construct: enzymes purified from a baculovirus expression system; Reagent production was conducted essentially as described in Brignola, P. S., et al, (2002) J. Biol. Chem. 277(2): 1576-1585
The experiment in a line: ErbB family substrate phosphorylation enzyme assay (HTRF), Method A or Method B. Format: biochemical. An outline of the steps: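 Baculovirus-expressed EGFR or ErbB2 (0.8 or 10 nM in enzyme mix) phosphorylates biotinylated Peptide C with 20 µM ATP and 0.8 µM peptide (substrate-mix levels), MnCl2, pH 7.5. Reaction ran 90 min at 20 °C with EDTA stop and HTRF anti-phosphotyrosine read. Method A: enzyme added last; Method B: 1 h enzyme–compound preincubation.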
On the technique in general: Time-resolved FRET reads energy transfer from a long-lived donor to a nearby acceptor.

Experiment [1] deals with BT474 and HN5 tumor cell lines. In words: Methylene blue growth inhibition assay (cellular Method A). Format: cell-based, Human. As to conditions: Homo sapiens, BT-474, 72 h, 3 days, read-out: Activity (Method): growth inhibition IC50 class. The method, boiled down: (§1)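 Colo205, BT474 and HN5 cells in DMEM/10% FBS (BT474 10,000, HN5 3,000 cells/well) treated next day with compound in DMEM, 0.3% final DMSO, for 3 days at 37° C. Biomass stained with methylene blue, solubilized, read at OD 620; IC50 interpolated by nonlinear regression from % inhibition versus vehicle.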

In the next experiment the test system is Colo205 tumor cell lines. In words: Methylene blue growth inhibition assay (cellular Method A), Colo205. The note with it: Homo sapiens, COLO 205, 72 h, 3 days, read-out: Activity (Method): growth inhibition IC50 class. The experiment is classed as cell-based, Human. The method, boiled down: as §1
[2] abbreviates: Method B: enzyme mix pre-incubated with compound 1 hour at 20° C., started with substrate mix.
[3] abbreviates: Method A: substrate mix added first, reaction started with enzyme mix.

SMILES strings stand for the structures.

What is called IC50 is the concentration needed to halve the response being measured. With `O=C1COc2cc(Nc3nccc(-c4c(-c5cccc(NC(=O)c6c(F)cccc6F)c5)nn5ccccc45)n3)ccc2N1` [Example 200, 2,6-Difluoro-N-[3-(3-{2-[(3-oxo-3,4-dihydro-2H-1,4-benzoxazin-7-yl)amino]-4-pyrimidinyl}pyrazolo[1,5-a]pyridin-2-yl)phenyl]benzamide], the “Activity (Method): pIC50 class against ErbB2 or EGFR” value (shortened to “Activity (Method): pIC50 class”) at ErbB2 or EGFR (setting [2]) is “+++ (B) (at least one pIC50 measurement of greater than 7 against either ErbB2 or EGFR)”. The concentration for half-maximal inhibition (IC50) in experiment [1] was less than 100 nM; with Colo205 tumor cell lines, 100 to 1000 nM.

In the case of `NC1CCc2ccc(Nc3nccc(-c4c(-c5cccc(NC(=O)c6c(F)cccc6F)c5)nn5ccccc45)n3)cc2C1` (stereo not drawn) [Example 174, N-[3-(3-{2-[(7-Amino-5,6,7,8-tetrahydro-2-naphthalenyl)amino]-4-pyrimidinyl}pyrazolo[1,5-g]pyridin-2-yl)phenyl]-2,6-difluorobenzamidedifluorobenzamide], the “Activity (Method): pIC50 class” value on ErbB2 or EGFR (setting [2]) is reported as “+++ (B) (at least one pIC50 measurement of greater than 7 against either ErbB2 or EGFR)”. The concentration for half-maximal inhibition (IC50) in experiment [1] is less than 100 nM; in the experiment on Colo205 tumor cell lines, 100 to 1000 nM.

Regarding `CN(C)CC(=O)Nc1cccc(Nc2nccc(-c3c(-c4cccc(NC(=O)c5c(F)cccc5F)c4)nn4ccccc34)n2)c1` [Example 110, N-(3-{3-[2-({3-[(N,N-dimethylglycyl)amino]phenyl}-amino)-4-pyrimidinyl]pyrazolo[1,5-a]pyridin-2-yl}phenyl)-2,6-difluorobenzamide], the “Activity (Method): pIC50 class” value at ErbB2 or EGFR (setting [2]) is listed as “+++ (B) (at least one pIC50 measurement of greater than 7 against either ErbB2 or EGFR)”. Moreover, the IC50 (in experiment [1]; in the experiment on Colo205 tumor cell lines) was 100 to 1000 nM each time.

As for `O=C(Nc1cccc(-c2nn3ccccc3c2-c2ccnc(Nc3ccccc3)n2)c1)c1cc(F)ccc1F` [Example 43, 2,5-Difluoro-N-(3-{3-[2-(phenylamino)-4-pyrimidinyl]pyrazolo[1,5-a]pyridin-2-yl}phenyl)benzamide], at ErbB2 or EGFR (setting [3]), the “Activity (Method): pIC50 class” value is listed as “+++ (A) (at least one pIC50 measurement of greater than 7 against either ErbB2 or EGFR)”. Moreover, the IC50 in experiment [1] is 100 to 1000 nM; in the experiment with Colo205 tumor cell lines, more than 1000 nM.

With `CN(C)CCOc1ccc(Nc2nccc(-c3c(-c4cccc(NC(=O)c5c(F)cccc5F)c4)nn4ccccc34)n2)cc1` [Example 105, N-[3-(3-{2-[(4-{[2-(dimethylamino)ethyl]oxy}phenyl)-amino]-4-pyrimidinyl}pyrazolo[1,5-a]pyridin-2-yl)phenyl]-2,6-difluorobenzamide], the “Activity (Method): pIC50 class” value on ErbB2 or EGFR (setting [2]) is “+++ (B) (at least one pIC50 measurement of greater than 7 against either ErbB2 or EGFR)”. Besides, the half-maximal inhibitory concentration (IC50) (in experiment [1]; in the experiment on Colo205 tumor cell lines) was less than 100 nM in each case.

In the case of `CN1CCN(c2cccc(Nc3nccc(-c4c(-c5cccc(NC(=O)c6c(F)cccc6F)c5)nn5ccccc45)n3)c2)CC1` [Example 109, 2,6-Difluoro-N-{3-[3-(2-{[3-(4-methyl-1-piperazinyl)-phenyl]amino}-4-pyrimidinyl)pyrazolo[1,5-a]pyridin-2-yl]phenyl}benzamide], the “Activity (Method): pIC50 class” value on ErbB2 or EGFR (setting [2]) was “+++ (B) (at least one pIC50 measurement of greater than 7 against either ErbB2 or EGFR)”. The half-inhibitory concentration (IC50) in experiment [1] was less than 100 nM; in the experiment on Colo205 tumor cell lines it was 100 to 1000 nM.

`O=C(Nc1cccc(-c2nn3ccccc3c2-c2ccnc(Nc3ccc(Cc4ccncc4)cc3)n2)c1)c1c(F)cccc1F` [Example 94]: the “Activity (Method): pIC50 class” value on ErbB2 or EGFR (setting [3]) is listed as “+++ (A) (at least one pIC50 measurement of greater than 7 against either ErbB2 or EGFR)”. Besides, the 50% inhibitory concentration (IC50) was less than 100 nM in experiment [1] and more than 1000 nM with Colo205 tumor cell lines.

Consider `O=C(Nc1cccc(-c2nn3ccccc3c2-c2ccnc(Nc3cccc(O)c3)n2)c1)c1c(F)cccc1F` [Example 59, 2,6-Difluoro-N-[3-(3-{2-[(3-hydroxyphenyl)amino]-4-pyrimidinyl}pyrazolo[1,5-a]pyridin-2-yl)phenyl]benzamide], for which, on ErbB2 or EGFR (setting [2]), the “Activity (Method): pIC50 class” value is given as “+++ (B) (at least one pIC50 measurement of greater than 7 against either ErbB2 or EGFR)”. Besides, the half-maximal inhibitory concentration (IC50) in experiment [1] is less than 100 nM; in the experiment on Colo205 tumor cell lines it was more than 1000 nM.

Turning to `CN1CCc2ccc(Nc3nccc(-c4c(-c5cccc(NC(=O)c6cc(F)ccc6F)c5)nn5ccccc45)n3)cc2C1` [Example 189, 2,5-Difluoro-N-[3-(3-{2-[(2-methyl-1,2,3,4-tetrahydro-7-isoquinolinyl)amino]-4-pyrimidinyl}pyrazolo[1,5-a]pyridin-2-yl)phenyl]benzamide], on ErbB2 or EGFR (setting [2]), the “Activity (Method): pIC50 class” value is recorded as “+++ (B) (at least one pIC50 measurement of greater than 7 against either ErbB2 or EGFR)”. In addition, the IC50 is less than 100 nM in experiment [1] and more than 1000 nM with Colo205 tumor cell lines.

For `COc1ccc(Nc2nccc(-c3c(-c4cccc(NC(=O)c5c(F)cccc5F)c4)nn4ccccc34)n2)cc1Cl` [Example 87, N-{3-[3-(2-{[3-Chloro-4-(methyloxy)phenyl]amino}-4-pyrimidinyl)pyrazolo[1,5-a]pyridin-2-yl]phenyl}-2,6-difluorobenzamide], the “Activity (Method): pIC50 class” value on ErbB2 or EGFR (setting [3]) is “+++ (A) (at least one pIC50 measurement of greater than 7 against either ErbB2 or EGFR)”. In addition, the IC50 in experiment [1] was less than 100 nM; in the experiment on Colo205 tumor cell lines it was 100 to 1000 nM.

Take `O=C(Nc1cccc(-c2nn3ccccc3c2-c2ccnc(Nc3cccc(OCCN4CCCC4)c3)n2)c1)c1c(F)cccc1F` [Example 136, 2,6-Difluoro-N-[3-(3-{2-[(3-{[2-(1-pyrrolidinyl)ethyl]oxy}phenyl)amino]-4-pyrimidinyl}pyrazolo[1,5-a]pyridin-2-yl)phenyl]benzamide]: the “Activity (Method): pIC50 class” value at ErbB2 or EGFR (setting [2]) was “+++ (B) (at least one pIC50 measurement of greater than 7 against either ErbB2 or EGFR)”. Besides, the 50% inhibitory concentration (IC50) is less than 100 nM in experiment [1] and 100 to 1000 nM in the experiment on Colo205 tumor cell lines.

Consider `CN(C)CCCOc1ccc(Nc2nccc(-c3c(-c4cccc(NC(=O)c5c(F)cccc5F)c4)nn4ccccc34)n2)cc1Cl` [Example 126, N-[3-(3-{2-[(3-Chloro-4-{[3-(dimethylamino)propyl]-oxy}phenyl)amino]-4-pyrimidinyl}pyrazolo[1,5-a]pyridin-2-yl)phenyl]-2,6-difluorobenzamide], for which, on ErbB2 or EGFR (setting [2]), the “Activity (Method): pIC50 class” value is on record as “+++ (B) (at least one pIC50 measurement of greater than 7 against either ErbB2 or EGFR)”. The values for the IC50 (in experiment [1]; in the experiment with Colo205 tumor cell lines) were less than 100 nM and 100 to 1000 nM, respectively.

In the case of `O=C(Nc1cccc(-c2nn3ccccc3c2-c2ccnc(Nc3ccc4c(c3)OCCO4)n2)c1)Nc1ccccc1Cl` [Example 2, N-(2-Chlorophenyl)-N-(3-{3-[2-(2,3-dihydro-1,4-benzodioxin-6-ylamino)-4-pyrimidinyl]pyrazolo[1,5-a]pyridin-2-yl}phenyl)urea], the “Activity (Method): pIC50 class” value on ErbB2 or EGFR (setting [3]) is “++ (A) (at least one pIC50 measurement greater than 6 against either ErbB2 or EGFR but no measurement greater than pIC50 of 7)”. Moreover, the half-inhibitory concentration (IC50) (in experiment [1]; in the experiment with Colo205 tumor cell lines) was more than 1000 nM in each case.

As to `O=C(Nc1cccc(-c2nn3ccccc3c2-c2ccnc(Nc3cccc(-c4cnco4)c3)n2)c1)c1cc(F)ccc1F` [Example 44, 2,5-Difluoro-N-{3-[3-(2-{[3-(1,3-oxazol-5-yl)phenyl]amino}-4-pyrimidinyl)pyrazolo[1,5-a]pyridin-2-yl]phenyl}benzamide], at ErbB2 or EGFR (setting [3]), the “Activity (Method): pIC50 class” value is “+++ (A) (at least one pIC50 measurement of greater than 7 against either ErbB2 or EGFR)”. Moreover, the figures for the IC50 (in experiment [1]; with Colo205 tumor cell lines) were less than 100 nM and 100 to 1000 nM, respectively.

For `NC1Cc2ccc(Nc3nccc(-c4c(-c5cccc(NC(=O)c6c(F)cccc6F)c5)nn5ccccc45)n3)cc2C1` (stereo not drawn) [Example 177, N-[3-(3-{2-[(2-Amino-2,3-dihydro-1H-inden-5-yl)amino]-4-pyrimidinyl}pyrazolo[1,5-a]pyridin-2-yl)phenyl]-2,6-difluorobenzamide], on ErbB2 or EGFR (setting [2]), the “Activity (Method): pIC50 class” value is reported as “+++ (B) (at least one pIC50 measurement of greater than 7 against either ErbB2 or EGFR)”. Further, the IC50 in experiment [1] was less than 100 nM; with Colo205 tumor cell lines, 100 to 1000 nM.

Turning to `CN1CCN(CCOc2ccc(Nc3nccc(-c4c(-c5cccc(NC(=O)c6c(F)cccc6F)c5)nn5ccccc45)n3)cc2)CC1` [Example 106, 2,6-Difluoro-N-[3-(3-{2-[(4-{[2-(4-methyl-1-piperazinyl)ethyl]oxy}phenyl)amino]-4-pyrimidinyl}pyrazolo[1,5-a]pyridin-2-yl)phenyl]benzamide], the “Activity (Method): pIC50 class” value at ErbB2 or EGFR (setting [3]) is “+++ (A) (at least one pIC50 measurement of greater than 7 against either ErbB2 or EGFR)”. Also, the results for the half-inhibitory concentration (IC50) (in experiment [1]; in the experiment on Colo205 tumor cell lines) were less than 100 nM and 100 to 1000 nM, respectively.

For `CCS(=O)(=O)c1ccc(OC)c(Nc2nccc(-c3c(-c4cccc(NC(=O)c5c(F)cccc5F)c4)nn4ccccc34)n2)c1` [Example 121, N-{3-[3-(2-{[5-(ethylsulfonyl)-2-(methyloxy)phenyl]-amino}-4-pyrimidinyl)pyrazolo[1,5-a]pyridin-2-yl]phenyl}-2,6-difluorobenzamide], the “Activity (Method): pIC50 class” value at ErbB2 or EGFR (setting [3]) is listed as “+++ (A) (at least one pIC50 measurement of greater than 7 against either ErbB2 or EGFR)”. The IC50 in experiment [1] was 100 to 1000 nM; in the experiment on Colo205 tumor cell lines, more than 1000 nM.
